# Experimental data reported in ChEMBL document CHEMBL1240295, “Specificity and mechanism of action of some commonly used protein kinase inhibitors” (Biochem J, 2000).
# Tests used:
# [1] = target: Phosphatidylinositol 4,5-bisphosphate 3-kinase catalytic subunit alpha isoform (Bos taurus) (UniProt P32871); details: Sf9, 1 uM
# Description: Inhibition of His-tagged bovine PI3K expressed in Sf9 cells at 1 uM
# [2] = target: Myosin light chain kinase 2, skeletal/cardiac muscle (Homo sapiens) (UniProt Q9H1R3); test: Inhibition of His-tagged human SkMLCK expressed in Escherichia coli at 1 uM
# [3] = target: Myosin light chain kinase, smooth muscle (Gallus gallus, UniProt P11799); test: Inhibition of chicken SmMLCK expressed in Escherichia coli
# [4] = target: Myosin light chain kinase, smooth muscle (Gallus gallus) (UniProt P11799); test: Inhibition of chicken SmMLCK expressed in Escherichia coli at 1 uM
# [5] = target: T1, Ribosomal protein S6 kinase beta-1 (Homo sapiens, UniProt P23443); test: Inhibition of His-tagged human S6K1 expressed in Escherichia coli at 20 uM; values are per cent of control
# Target sequence in this assay (P23443 whole entry, looked up): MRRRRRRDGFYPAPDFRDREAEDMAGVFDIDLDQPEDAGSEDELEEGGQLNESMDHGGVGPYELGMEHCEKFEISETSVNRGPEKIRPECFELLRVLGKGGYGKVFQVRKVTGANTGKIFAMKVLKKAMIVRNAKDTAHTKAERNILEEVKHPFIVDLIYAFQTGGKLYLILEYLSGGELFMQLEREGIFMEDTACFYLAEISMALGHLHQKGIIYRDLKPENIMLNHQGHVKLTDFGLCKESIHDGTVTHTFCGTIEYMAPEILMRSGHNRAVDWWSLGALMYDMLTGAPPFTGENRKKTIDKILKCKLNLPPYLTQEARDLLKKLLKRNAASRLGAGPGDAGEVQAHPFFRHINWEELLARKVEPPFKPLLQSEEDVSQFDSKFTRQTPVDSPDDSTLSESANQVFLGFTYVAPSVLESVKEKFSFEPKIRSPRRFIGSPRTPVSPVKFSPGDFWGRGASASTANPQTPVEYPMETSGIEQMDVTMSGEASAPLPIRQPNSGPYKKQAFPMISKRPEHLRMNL
# [6] = target: Tyrosine-protein kinase Lck (Homo sapiens) (UniProt P06239); test: Inhibition of His-tagged human LCK expressed in Sf9 cells at 20 uM; values are per cent of control
# Bos taurus = species: Bos taurus; test: Inhibition of bovine heart PKA at 20 uM; values are per cent of control
# [7] = target: Mitogen-activated protein kinase 11 (Homo sapiens) (UniProt Q15759); test: Inhibition of His-tagged human SAPK2b/p38b2 expressed in Escherichia coli at 20 uM; values are per cent of control
# [8] = target: T2, Mitogen-activated protein kinase 12 (Homo sapiens) (UniProt P53778); test: Inhibition of His-tagged human SAPK3/p38gamma expressed in Escherichia coli at 20 uM; values are per cent of control
# T2 sequence (whole entry): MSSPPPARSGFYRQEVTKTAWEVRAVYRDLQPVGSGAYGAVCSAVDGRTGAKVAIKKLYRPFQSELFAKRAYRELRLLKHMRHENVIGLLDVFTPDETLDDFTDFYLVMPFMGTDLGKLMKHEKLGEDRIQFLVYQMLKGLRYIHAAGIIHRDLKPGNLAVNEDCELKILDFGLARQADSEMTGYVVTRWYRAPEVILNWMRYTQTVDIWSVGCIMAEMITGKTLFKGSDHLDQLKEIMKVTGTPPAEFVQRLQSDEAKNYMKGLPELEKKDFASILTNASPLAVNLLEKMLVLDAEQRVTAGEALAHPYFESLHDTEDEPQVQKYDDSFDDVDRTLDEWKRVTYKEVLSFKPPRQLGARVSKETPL
# [9] = target: T3, Mitogen-activated protein kinase 13 (Homo sapiens) (UniProt O15264); test: Inhibition of His-tagged human SAPK4/p38delta expressed in Escherichia coli at 20 uM; details: values are per cent of control
# T3 sequence (whole entry): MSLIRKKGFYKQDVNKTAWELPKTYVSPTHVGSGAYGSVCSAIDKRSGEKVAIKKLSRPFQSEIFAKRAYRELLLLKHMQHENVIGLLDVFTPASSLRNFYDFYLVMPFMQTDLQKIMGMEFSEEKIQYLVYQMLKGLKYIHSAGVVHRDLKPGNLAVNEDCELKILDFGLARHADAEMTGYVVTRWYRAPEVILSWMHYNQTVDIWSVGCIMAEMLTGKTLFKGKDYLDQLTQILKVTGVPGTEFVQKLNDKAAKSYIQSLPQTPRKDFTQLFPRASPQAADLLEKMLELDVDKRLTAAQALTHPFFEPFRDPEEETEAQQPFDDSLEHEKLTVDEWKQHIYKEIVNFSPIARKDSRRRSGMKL
# [10] = target: MAP kinase-activated protein kinase 5 (Homo sapiens, UniProt Q8IW41); format: cell-based, Sf9
# Description: Inhibition of His-tagged human PRAK expressed in Sf9 cells
# [11] = target: T4, Glycogen synthase kinase-3 beta (Homo sapiens, UniProt P49841); test: Inhibition of His-tagged human GSK3b expressed in Sf21 cells at 20 uM; values are per cent of control
# Target sequence in this assay (P49841 whole entry, looked up): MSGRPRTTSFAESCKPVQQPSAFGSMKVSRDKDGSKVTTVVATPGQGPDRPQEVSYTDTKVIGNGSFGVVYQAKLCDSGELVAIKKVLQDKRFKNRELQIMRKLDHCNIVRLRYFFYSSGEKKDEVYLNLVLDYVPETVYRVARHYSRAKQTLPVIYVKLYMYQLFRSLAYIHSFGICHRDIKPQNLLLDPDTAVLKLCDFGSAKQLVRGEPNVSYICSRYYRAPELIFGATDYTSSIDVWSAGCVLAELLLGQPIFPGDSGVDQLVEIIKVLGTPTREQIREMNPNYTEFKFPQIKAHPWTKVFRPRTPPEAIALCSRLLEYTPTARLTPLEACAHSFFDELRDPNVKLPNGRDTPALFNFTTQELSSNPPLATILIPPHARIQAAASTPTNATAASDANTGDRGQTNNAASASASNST
# [12] = target: Mitogen-activated protein kinase 8 (Homo sapiens) (UniProt P45983); test: Inhibition of His-tagged human JNK1a1/SAPK1c expressed in Escherichia coli at 20 uM; values are per cent of control
# [13] = target: Mitogen-activated protein kinase 14 (Homo sapiens) (UniProt Q16539); test: Inhibition of His-tagged human SAPK2a/p38 expressed in Escherichia coli at 20 uM; values are per cent of control
# [14] = target: Protein kinase C delta type (Homo sapiens) (UniProt Q05655); details: 20 uM
# Description: Inhibition of His-tagged human PKCdelta expressed in Escherichia coli at 20 uM
# [15] = target: Mitogen-activated protein kinase 1 (Homo sapiens) (UniProt P28482); test: Inhibition of His-tagged human MAPK2/ERK2 expressed in Escherichia coli at 20 uM; values are per cent of control
# [16] = target: 3-phosphoinositide-dependent protein kinase 1 (Homo sapiens) (UniProt O15530); test: Inhibition of His-tagged human PDK1 expressed in Sf21 cells at 20 uM; values are per cent of control
# [17] = target: MAP kinase-activated protein kinase 2 (Homo sapiens, UniProt P49137); test: Inhibition of His-tagged human MAPKAPK2 expressed in Escherichia coli […]
# Oryctolagus cuniculus = species: Oryctolagus cuniculus; test: Inhibition of PHK from rabbit skeletal muscle at 20 uM; values are per cent of control; details: Muscle tissue
# [18] = target: T1, Ribosomal protein S6 kinase beta-1; test: Inhibition of His-tagged human S6K1 expressed in Escherichia coli
# Target sequence in this assay (P23443 whole entry): as the sequence (P23443 whole entry, looked up) above
# [19] = target: Ribosomal protein S6 kinase alpha-5 (Homo sapiens, UniProt O75582); test: Inhibition of His-tagged human MSK1 expressed in Sf9 cells
# [20] = target: T4, Glycogen synthase kinase-3 beta; test: Inhibition of His-tagged human GSK3b expressed in Sf21 cells
# Target sequence in this assay (P49841 whole entry): as the sequence (P49841 whole entry, looked up) above
# [21] = Inhibition of MAPKAPK1b from rabbit skeletal muscle; format: tissue-based, Oryctolagus cuniculus, Muscle tissue
# [22] = target: Protein kinase C alpha type (Homo sapiens, UniProt P17252); test: Inhibition of His-tagged human PKCalpha expressed in Escherichia coli
# [23] = target: Phosphatidylinositol 4,5-bisphosphate 3-kinase catalytic subunit alpha isoform (Bos taurus) (UniProt P32871); test: Inhibition of His-tagged bovine PI3K expressed in Sf9 cells at 20 uM
# Chain of Phosphatidylinositol 4,5-bisphosphate 3-kinase catalytic subunit alpha isoform (Bos taurus) (P32871 whole entry, canonical isoform): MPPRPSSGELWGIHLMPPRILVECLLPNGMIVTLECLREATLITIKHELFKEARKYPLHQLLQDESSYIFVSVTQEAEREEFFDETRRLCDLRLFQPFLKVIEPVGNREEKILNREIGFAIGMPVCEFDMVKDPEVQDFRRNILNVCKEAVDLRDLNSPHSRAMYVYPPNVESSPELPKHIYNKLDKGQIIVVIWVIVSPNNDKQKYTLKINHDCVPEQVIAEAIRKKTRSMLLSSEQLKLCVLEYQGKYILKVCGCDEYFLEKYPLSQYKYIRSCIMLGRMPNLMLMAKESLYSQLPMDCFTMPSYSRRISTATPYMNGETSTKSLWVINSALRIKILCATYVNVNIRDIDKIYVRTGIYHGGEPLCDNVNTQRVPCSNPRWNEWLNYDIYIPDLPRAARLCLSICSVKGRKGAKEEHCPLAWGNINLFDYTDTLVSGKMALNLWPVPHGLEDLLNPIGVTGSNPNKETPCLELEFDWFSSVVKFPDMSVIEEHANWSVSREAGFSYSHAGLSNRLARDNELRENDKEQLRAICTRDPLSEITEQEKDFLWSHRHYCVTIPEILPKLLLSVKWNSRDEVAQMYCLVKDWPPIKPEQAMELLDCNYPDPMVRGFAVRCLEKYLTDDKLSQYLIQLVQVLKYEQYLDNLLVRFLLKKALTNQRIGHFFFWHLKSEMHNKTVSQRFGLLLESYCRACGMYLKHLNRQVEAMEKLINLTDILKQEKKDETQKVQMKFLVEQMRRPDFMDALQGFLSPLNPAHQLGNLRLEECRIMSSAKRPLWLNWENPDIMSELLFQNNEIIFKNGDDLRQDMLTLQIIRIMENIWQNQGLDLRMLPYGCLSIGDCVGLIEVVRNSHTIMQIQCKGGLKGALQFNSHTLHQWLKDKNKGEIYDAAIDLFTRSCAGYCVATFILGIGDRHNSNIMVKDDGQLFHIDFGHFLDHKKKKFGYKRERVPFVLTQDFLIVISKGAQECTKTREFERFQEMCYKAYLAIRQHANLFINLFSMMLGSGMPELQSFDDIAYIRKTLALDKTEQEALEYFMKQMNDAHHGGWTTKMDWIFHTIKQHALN
# Chain of Mitogen-activated protein kinase 11 (Homo sapiens) (Q15759 whole entry): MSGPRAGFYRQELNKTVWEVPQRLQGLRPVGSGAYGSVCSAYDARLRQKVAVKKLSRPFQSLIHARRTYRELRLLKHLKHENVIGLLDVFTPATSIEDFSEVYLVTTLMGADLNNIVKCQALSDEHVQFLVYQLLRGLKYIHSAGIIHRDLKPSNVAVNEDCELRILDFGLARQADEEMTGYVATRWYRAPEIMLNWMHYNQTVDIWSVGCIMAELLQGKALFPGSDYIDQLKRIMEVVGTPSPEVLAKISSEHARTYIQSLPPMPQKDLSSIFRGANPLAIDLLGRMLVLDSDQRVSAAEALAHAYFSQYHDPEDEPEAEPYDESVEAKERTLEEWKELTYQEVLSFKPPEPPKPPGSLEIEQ
# Chain of Mitogen-activated protein kinase 14 (Homo sapiens) (Q16539 whole entry): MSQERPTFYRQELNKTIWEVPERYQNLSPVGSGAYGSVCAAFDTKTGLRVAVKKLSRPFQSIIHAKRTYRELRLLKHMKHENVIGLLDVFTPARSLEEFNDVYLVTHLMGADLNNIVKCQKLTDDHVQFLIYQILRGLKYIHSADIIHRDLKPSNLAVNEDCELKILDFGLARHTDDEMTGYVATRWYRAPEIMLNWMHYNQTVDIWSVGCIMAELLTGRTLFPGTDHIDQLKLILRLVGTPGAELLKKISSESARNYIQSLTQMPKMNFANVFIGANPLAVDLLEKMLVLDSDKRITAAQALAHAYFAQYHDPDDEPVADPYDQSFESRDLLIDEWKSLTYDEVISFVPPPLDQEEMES
# Chain of 3-phosphoinositide-dependent protein kinase 1 (Homo sapiens) (O15530 whole entry, looked up): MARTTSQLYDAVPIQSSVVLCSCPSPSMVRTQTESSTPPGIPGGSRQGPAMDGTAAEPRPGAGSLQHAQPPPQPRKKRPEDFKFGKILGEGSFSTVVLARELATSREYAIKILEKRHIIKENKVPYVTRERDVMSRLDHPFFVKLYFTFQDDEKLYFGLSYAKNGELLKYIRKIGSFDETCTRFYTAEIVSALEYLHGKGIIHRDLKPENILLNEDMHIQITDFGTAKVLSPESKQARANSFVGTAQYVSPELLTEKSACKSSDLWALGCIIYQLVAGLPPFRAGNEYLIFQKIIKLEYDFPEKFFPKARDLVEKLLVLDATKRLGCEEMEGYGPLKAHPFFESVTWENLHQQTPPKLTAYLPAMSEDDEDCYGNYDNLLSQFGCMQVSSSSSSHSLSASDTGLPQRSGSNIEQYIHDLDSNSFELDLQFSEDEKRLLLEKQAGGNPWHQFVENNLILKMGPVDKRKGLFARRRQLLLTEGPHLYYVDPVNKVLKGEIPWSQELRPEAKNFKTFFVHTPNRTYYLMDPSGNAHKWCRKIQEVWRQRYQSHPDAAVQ
# Chain of Mitogen-activated protein kinase 8 (Homo sapiens) (P45983 whole entry): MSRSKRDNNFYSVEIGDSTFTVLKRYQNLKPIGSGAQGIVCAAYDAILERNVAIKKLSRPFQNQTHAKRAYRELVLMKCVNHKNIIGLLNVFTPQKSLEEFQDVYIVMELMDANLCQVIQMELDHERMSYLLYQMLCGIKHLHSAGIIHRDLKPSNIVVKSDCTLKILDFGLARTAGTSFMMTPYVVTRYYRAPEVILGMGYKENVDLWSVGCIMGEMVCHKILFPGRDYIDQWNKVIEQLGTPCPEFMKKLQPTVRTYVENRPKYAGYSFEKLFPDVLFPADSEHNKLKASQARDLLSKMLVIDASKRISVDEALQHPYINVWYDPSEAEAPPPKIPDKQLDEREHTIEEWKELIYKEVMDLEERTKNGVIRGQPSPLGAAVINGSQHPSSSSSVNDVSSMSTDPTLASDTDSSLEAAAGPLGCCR
# Chain of Mitogen-activated protein kinase 1 (Homo sapiens) (P28482 whole entry): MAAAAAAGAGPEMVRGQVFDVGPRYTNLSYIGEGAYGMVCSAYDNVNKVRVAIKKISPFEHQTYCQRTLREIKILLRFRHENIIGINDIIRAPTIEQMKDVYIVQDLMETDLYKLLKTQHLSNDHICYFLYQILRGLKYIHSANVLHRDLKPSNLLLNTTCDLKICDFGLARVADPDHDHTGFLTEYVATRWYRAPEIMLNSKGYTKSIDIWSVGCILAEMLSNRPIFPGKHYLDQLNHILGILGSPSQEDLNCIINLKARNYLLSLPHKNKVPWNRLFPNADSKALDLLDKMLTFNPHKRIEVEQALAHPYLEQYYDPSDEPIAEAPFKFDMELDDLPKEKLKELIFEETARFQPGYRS
# Chain of Tyrosine-protein kinase Lck (Homo sapiens) (P06239 2-509 limits assumed): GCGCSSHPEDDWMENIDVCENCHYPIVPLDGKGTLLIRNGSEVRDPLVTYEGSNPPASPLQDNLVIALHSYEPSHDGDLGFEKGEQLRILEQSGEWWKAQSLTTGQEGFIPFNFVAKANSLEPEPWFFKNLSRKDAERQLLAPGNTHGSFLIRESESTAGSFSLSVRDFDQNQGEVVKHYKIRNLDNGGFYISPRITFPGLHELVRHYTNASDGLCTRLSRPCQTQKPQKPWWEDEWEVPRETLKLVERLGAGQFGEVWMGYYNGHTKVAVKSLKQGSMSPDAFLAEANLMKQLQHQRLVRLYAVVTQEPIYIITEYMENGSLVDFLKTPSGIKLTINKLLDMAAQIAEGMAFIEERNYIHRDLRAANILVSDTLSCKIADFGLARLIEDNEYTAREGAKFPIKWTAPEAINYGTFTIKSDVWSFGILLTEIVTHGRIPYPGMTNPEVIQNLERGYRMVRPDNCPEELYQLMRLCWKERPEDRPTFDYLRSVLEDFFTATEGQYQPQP
SMILES,residual activity [5],residual activity [6],residual activity (Bos taurus),residual activity [7],residual activity [8],residual activity [9],residual activity [11],residual activity [12],residual activity [13],residual activity [15],residual activity [16],"level, % of control (Oryctolagus cuniculus)",other results
COC[C@H]1OC(=O)c2coc3c2[C@@]1(C)C1=C(C3=O)[C@@H]2CCC(=O)[C@@]2(C)C[C@H]1OC(C)=O [WORTMANNIN],–,–,–,–,–,–,–,–,–,–,–,–,inhibition [1]: 0%; inhibition [2]: 4%; IC50 [3]: 260 nM; inhibition [4]: 4%
CC(=O)c1c(O)c(C)c(O)c(Cc2c(O)c3c(c(C(=O)/C=C/c4ccccc4)c2O)OC(C)(C)C=C3)c1O [ROTTLERIN],98%,70%,17%,127%,146%,130%,13%,49%,111%,139%,36%,63%,IC50 [10]: 1900 nM; inhibition [14]: 101%; IC50 [17]: 5400 nM
Cn1cc(C2=C(c3cn(CCCSC(=N)N)c4ccccc34)C(=O)NC2=O)c2ccccc21 [BISINDOLYLMALEIMIDE IX],–,–,–,–,–,–,–,–,–,–,–,–,IC50 [18]: 15 nM; IC50 [19]: 8 nM; IC50 [20]: 38 nM; IC50 [21]: 3 nM; IC50 [22]: 33 nM
O=c1c(O)c(-c2ccc(O)c(O)c2)oc2cc(O)cc(O)c12,25%,83%,104%,150%,132%,103%,30%,101%,138%,113%,81%,32%,inhibition [23]: 18%
